For one test, the system named is HTM/HMVEC constructs. The test is described as follows: qPCR and western blot of outflow pathway markers in co-cultured constructs exposed to pharmacologic agents. The note with it: qPCR and western blotting; FIGS. 14A-E. In kind it is cell-based, human. As to the method: Total RNA was extracted from samples using an RNeasy Plus Mini kit (Qiagen Inc., Valencia, Calif.). RNA concentrations were determined using a NanoDrop spectrophotometer. 50 ng of RNA per sample was used for each qPCR experiments. qPCR was carried out using TAQMAN RNA-TO-CT™ 1-Step Kit (Applied Biosystems, Carlsbad, Calif.) and performed on an AB StepOnePlus Real Time PCR system (Life Technologies, Carlsbad, Calif.) using primers for αB-crystallin, PECAM-1, fibulin-2, collagen type IV, fibronectin, laminin and GAPDH.
The temperature profile was as follows: 48° C. for 15 min (reverse transcription step), followed by an enzyme activation step of 95° C. for 10 min, 40 cycles of 15 s denaturation at 95° C. and 1 min anneal/extend at 60° C. Relative quantitation data analysis was performed using the comparative quantification method, ΔΔCt, with GAPDH as the endogenous reference. […]
FIGS. 14A-E show gene (left panels, qPCR) and protein (right, western blots) expression patterns of co-cultured HTM/HVEC constructs. HTM-HMVEC and HTM-HSC constructs were contacted with pharmacologic agents that regulate outflow and expression levels of various genes and proteins (α-SMA, collagen IV, fibronectin, myocillin) measured by qPCR and western blotting. […]
(Quantitative PCR measures a nucleic acid by following its amplification.)

For another test, the system named is HTM cells. The test is described as follows: Outflow facility of porous scaffolds bearing cultured HTM cells (perfusion). In kind it is cell-based, human. The note with it: FIG. 15. An excerpt: TM cells and SC cell-like cells co-cultured on a porous scaffold in accordance with aspects of the present disclosure may serve as a system to model conventional outflow tract function, physiology, and pathophysiology. FIG. 13A is a diagrammatic representation of a testing apparatus for performing perfusion-related testing in accordance with aspects of the present disclosure. A syringe pump or other pressure source may feed into a holder for a porous scaffold, with TM and SC cell-like cells co-cultured thereupon, with pressure controlled and measured by a pressure transducer. The pressure across the porous scaffold and cells, and other aspects related to pressure such as through-flow, flow rate, resistance to flow, hydraulic conductivity, and other indicia of conventional outflow tract function may be measured. For example, fluids can be perfused across the co-culture-bearing scaffold and aspects of fluid mechanics measured as an indication of conventional outflow tract function. […] Aspects of membrane pressure, outflow dynamics, and cellular function can similarly be measured under different conditions known or hypothesized to replicate disease states, or lack thereof, or conditions known or believed to prevent, ameliorate, or cure disease or pathological states. In an example, fluid may be perfused across a porous scaffold bearing co-cultured TM and SC cell-like cells and effects of transmembrane pressure, flow rate, through-flow, resistance to flow, hydraulic conductivity, vacuole dynamics, pore formation, or outflow facility of the co-cultured TM cells and SC cell-like cells may be measured. […] Other aspects of cellular physiology or function may similarly be measured, in response or relation to perfusion or otherwise. […]
A perfusion apparatus was used as described in publicly available literature and in accordance with the apparatus illustrated in FIG. 13. […] Vacuole/pore size were measured using the embedded LEO electron microscopy image software. […]

`C[C@@H](N)[C@H]1CC[C@H](C(=O)Nc2ccncc2)CC1` [Y27632]: the “response (expression of α-SMA, collagen IV, fibronectin, myocillin) of HTM-HMVEC constructs compared with HTM-HSC constructs” value in the test with HTM/HMVEC constructs is “responds similar”. For the same compound, the “effect on outflow facility” value in the test with HTM cells is on record as “stimulate”.
Turning to `CC(=O)OCC(=O)[C@@]1(O)CC[C@H]2[C@@H]3CCC4=CC(=O)C=C[C@]4(C)[C@H]3C(=O)C[C@@]21C` [prednisone acetate], the “effect on outflow facility” value in the test on HTM cells is “inhibit”.
For the compound TGFβ, the “response (expression of α-SMA, collagen IV, fibronectin, myocillin) of HTM-HMVEC constructs compared with HTM-HSC constructs” value in the test on HTM/HMVEC constructs is on record as “responds similar”. In addition, the “effect on outflow facility” value in the test on HTM cells was “inhibit”.
